For experiment [1], the target named is T1, SARS-CoV helicase (Severe acute respiratory syndrome coronavirus, UniProt P0C6X7). The experiment is classed as biochemical.
Experiment [2] addresses T1, SARS-CoV helicase. The experiment is classed as biochemical. The source holds these as a separate data set.

For `O=c1c(O)c(-c2ccc3c(c2)OCO3)oc2cc(O)cc(O)c12` [Compound 3b, 2-Benzo[1,3]dioxol-5-yl-3,5,7-trihydroxy-chromen-4-one], the “inhibition of duplex DNA-unwinding activity (in words)” value against SARS-CoV helicase [1] is recorded as “failed to show any inhibition”. The “inhibition of helicase ATPase activity (in words)” value against SARS-CoV helicase [2] is on record as “failed to show any inhibition”.
